Measured values: patent US20260285850A1, “SUBSTITUTED OXAZOLIDINONES AND IMIDAZOLINONES AS HERBICIDES” (FMC CORPORATION, priority 2023, published 2026)

Assays:
Format in all cases: in vivo
[1] = test system: ducksalad (Heteranthera limosa); assay: Test B flooded paddy test, visual plant response rating 0-100; conditions: 250 g ai/ha, Flood, applied to paddy water, evaluated after 13 days
Summary of the method: (§1)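 Visual scores versus untreated controls were recorded 13 days after treatment of greenhouse-held plants. At the 2-leaf stage, pots were flooded 3 cm above the soil surface and compounds added straight to the water.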

[2] = test system: barnyardgrass (Echinochloa crusgalli); assay: as above; conditions: 250 g ai/ha, Flood, applied to paddy water, evaluated after 13 days
Summary of the method: as §1

rice (Oryza sativa) = assay: as above; conditions: 250 g ai/ha, Flood, applied to paddy water, evaluated after 13 days
Summary of the method: as §1

[3] = test system: sedge, umbrella (small-flower umbrella sedge, Cyperus difformis); assay: as above; conditions: 250 g ai/ha, Flood, applied to paddy water, evaluated after 13 days
Summary of the method: as §1

kochia (Bassia scoparia) [4] = assay: Test A preemergence soil spray, visual injury rating 0-100; conditions: 10 days, 0 = no effect, 100 = complete control
Summary of the method: (§2)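 Compounds formulated in a non-phytotoxic solvent with surfactant are sprayed onto soil of freshly planted loam-sand pots ahead of emergence, or onto emerged plants 2-10 cm tall. After a 10-day greenhouse period, each species is scored visually for injury against untreated controls.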

[5] = test system: wheat (Triticum aestivum); assay: as above; conditions: 10 days, 0 = no effect, 100 = complete control
Summary of the method: as §2

[6] = test system: barnyardgrass (Echinochloa crus-galli); assay: as above; conditions: 10 days, 0 = no effect, 100 = complete control
Summary of the method: as §2

[7] = test system: ragweed (common ragweed, Ambrosia artemisiifolia); assay: as above; conditions: 10 days, 0 = no effect, 100 = complete control
Summary of the method: as §2

[8] = test system: blackgrass (Alopecurus myosuroides); assay: as above; conditions: 10 days, 0 = no effect, 100 = complete control
Summary of the method: as §2

[9] = test system: oat, wild (wild oat, Avena fatua); assay: as above; conditions: 10 days, 0 = no effect, 100 = complete control
Summary of the method: as §2

soybean (Glycine max) [10] = assay: as above; conditions: 10 days, 0 = no effect, 100 = complete control
Summary of the method: as §2

corn (Zea mays) [11] = assay: as above; conditions: 10 days, 0 = no effect, 100 = complete control
Summary of the method: as §2

[12] = test system: palmer (palmer amaranth, palmer pigweed, Amaranthus palmeri); assay: as above; conditions: 10 days, 0 = no effect, 100 = complete control
Summary of the method: as §2

[13] = test system: green foxtail (Setaria viridis); assay: as above; conditions: 10 days, 0 = no effect, 100 = complete control
Summary of the method: as §2

[14] = test system: ryegrass, Italian (italian ryegrass, Lolium multiflorum); assay: as above; conditions: 10 days, 0 = no effect, 100 = complete control
Summary of the method: as §2

kochia (Bassia scoparia) [15] = assay: Test A postemergence application, visual injury rating 0-100; conditions: 10 days
Summary of the method: as §2

[16] = test system: wheat (Triticum aestivum); assay: as above; conditions: 10 days
Summary of the method: as §2

[17] = test system: barnyardgrass (Echinochloa crus-galli); assay: as above; conditions: 10 days
Summary of the method: as §2

[18] = test system: ragweed (common ragweed, Ambrosia artemisiifolia); assay: as above; conditions: 10 days
Summary of the method: as §2

[19] = test system: galium (catchweed bedstraw, Galium aparine); assay: as above; conditions: 10 days
Summary of the method: as §2

[20] = test system: horseweed (Erigeron canadensis); assay: as above; conditions: 10 days
Summary of the method: as §2

[21] = test system: blackgrass (Alopecurus myosuroides); assay: as above; conditions: 10 days
Summary of the method: as §2

[22] = test system: oat, wild (wild oat, Avena fatua); assay: as above; conditions: 10 days
Summary of the method: as §2

soybean (Glycine max) [23] = assay: as above; conditions: 10 days
Summary of the method: as §2

corn (Zea mays) [24] = assay: as above; conditions: 10 days
Summary of the method: as §2

[25] = test system: palmer (palmer amaranth, palmer pigweed, Amaranthus palmeri); assay: as above; conditions: 10 days
Summary of the method: as §2

[26] = test system: green foxtail (Setaria viridis); assay: as above; conditions: 10 days
Summary of the method: as §2

[27] = test system: ryegrass, Italian (italian ryegrass, Lolium multiflorum); assay: as above; conditions: 10 days
Summary of the method: as §2

[28] = 31 g ai/ha, postemergence, 0 = no effect, 100 = complete control
[29] = Postemergence, 125 g ai/ha, 0 is no effect, 100 is complete control

## CC1(C(=O)NC2C=CC(C(=O)OC3CCCC3)C2)CN(c2cc(F)cc(F)c2)C(=O)O1 (stereo not shown) [Compound 57]
[1]
  Plant response rating, Ducksalad (0 to 100 scale, 0 is no effect and 100 is complete control): 100
[2]
  Plant response rating, Barnyardgrass (0 to 100 scale, 0 is no effect and 100 is complete control): 90
Rice (Oryza sativa)
  Plant response rating, Rice (0 to 100 scale, 0 is no effect and 100 is complete control): 20
[3]
  Plant response rating, Sedge, Umbrella (0 to 100 scale, 0 is no effect and 100 is complete control): 55
Kochia (Bassia scoparia) [4]; 31 g ai/ha
  Kochia plant response rating (0-100): 0
Kochia (Bassia scoparia) [4]; 125 g ai/ha
  Kochia plant response rating (0 to 100 scale): 90
[5]; 31 g ai/ha
  Wheat plant response rating (0-100): 90
[5]; 125 g ai/ha
  Wheat plant response rating (0 to 100 scale): 100
[6]; 31 g ai/ha
  Barnyardgrass plant response rating (0-100): 50
[6]; 125 g ai/ha
  Barnyardgrass plant response rating (0 to 100 scale): 100
[7]; 31 g ai/ha
  Ragweed plant response rating (0-100): 0
[7]; 125 g ai/ha
  Ragweed plant response rating (0 to 100 scale): 0
[8]; 31 g ai/ha
  Blackgrass plant response rating (0-100): 70
[8]; 125 g ai/ha
  Blackgrass plant response rating (0 to 100 scale): 90
[9]; 31 g ai/ha
  Oat, Wild plant response rating (0-100): 90
[9]; 125 g ai/ha
  Oat, Wild plant response rating (0 to 100 scale): 90
Soybean (Glycine max) [10]; 31 g ai/ha
  Soybean plant response rating (0-100): 50
Soybean (Glycine max) [10]; 125 g ai/ha
  Soybean plant response rating (0 to 100 scale): 80
Corn (Zea mays) [11]; 31 g ai/ha
  Corn plant response rating (0-100): 10
Corn (Zea mays) [11]; 125 g ai/ha
  Corn plant response rating (0 to 100 scale): 90
[12]; 31 g ai/ha
  Amaranth, Palmer plant response rating (0-100): 10
[12]; 125 g ai/ha
  Amaranth, Palmer plant response rating (0 to 100 scale): 70
[13]; 31 g ai/ha
  Foxtail, Green plant response rating (0-100): 0
[13]; 125 g ai/ha
  Foxtail, Green plant response rating (0 to 100 scale): 50
[14]; 31 g ai/ha
  Ryegrass, Italian plant response rating (0-100): 50
[14]; 125 g ai/ha
  Ryegrass, Italian plant response rating (0 to 100 scale): 100
Kochia (Bassia scoparia) [15]; [28]
  Kochia plant response rating (0-100): 80
Kochia (Bassia scoparia) [15]; [29]
  Kochia plant response rating (0 to 100 scale): 80
[16]; [28]
  Wheat plant response rating (0-100): 90
[16]; [29]
  Wheat plant response rating (0 to 100 scale): 90
[17]; [28]
  Barnyardgrass plant response rating (0-100): 100
[17]; [29]
  Barnyardgrass plant response rating (0 to 100 scale): 100
[18]; [28]
  Ragweed plant response rating (0-100): 40
[18]; [29]
  Ragweed plant response rating (0 to 100 scale): 60
[19]; [28]
  Galium plant response rating (0-100): 80
[19]; [29]
  Galium plant response rating (0 to 100 scale): 80
[20]; [28]
  Horseweed plant response rating (0-100): 0
[20]; [29]
  Horseweed plant response rating (0 to 100 scale): 60
[21]; [28]
  Blackgrass plant response rating (0-100): 90
[21]; [29]
  Blackgrass plant response rating (0 to 100 scale): 90
[22]; [28]
  Oat, Wild plant response rating (0-100): 90
[22]; [29]
  Oat, Wild plant response rating (0 to 100 scale): 90
Soybean (Glycine max) [23]; [28]
  Soybean plant response rating (0-100): 60
Soybean (Glycine max) [23]; [29]
  Soybean plant response rating (0 to 100 scale): 70
Corn (Zea mays) [24]; [28]
  Corn plant response rating (0-100): 90
Corn (Zea mays) [24]; [29]
  Corn plant response rating (0 to 100 scale): 100
[25]; [28]
  Amaranth, Palmer plant response rating (0-100): 20
[25]; [29]
  Amaranth, Palmer / Pigweed, Palmer plant response rating (0 to 100 scale): 70
[26]; [28]
  Foxtail, Green plant response rating (0-100): 30
[26]; [29]
  Foxtail, Green plant response rating (0 to 100 scale): 90
[27]; [28]
  Ryegrass, Italian plant response rating (0-100): 90
[27]; [29]
  Ryegrass, Italian plant response rating (0 to 100 scale): 90
